“Also recorded” adds a separate entry of the source.
How the values were obtained:
human platelets [1] = assay: Platelet morphology: formation of extensions with new cell bodies (progeny) in suspension-cultured platelets; assay type: cell-based; details: platelets 1×10^5 per mm^3 cultured in suspension for 6 hours; nevirapine 750 μM; 9-cis retinoic acid 1 and 10 μM
Protocol: Platelet Isolation and Culture. Whole blood was centrifuged at 150×g for 20 minutes to obtain platelet-rich plasma (PRP). Residual leukocytes were removed from the PRP by CD45+ bead selection as previously described^1, 6. The negatively selected platelets were resuspended in serum-free M199 culture medium at 37° C. in a humidified 5% CO2 atmosphere. For select studies, platelets were resuspended in fresh human plasma. […] Unless otherwise indicated, the washed platelets were cultured in suspension using round-bottom polypropylene tubes (Becton Dickinson, Franklin Lakes, N.J.). Platelets were suspended at 100,000/μl.
Platelet Morphology and Protein Expression. Freshly-isolated or aged platelets were either fixed immediately to assess baseline morphology, or after 6 hours of suspension culture as described above.
For studies that used fixed platelets, paraformaldehyde (4%) was added directly to the suspension culture as previously described^1, 6, 26 in order to maintain the native morphology of the cells. The fixed platelets (10,000 total for each sample) were subsequently layered onto coverslips coated with Vectabond™ (Vector Laboratories, Burlingame, Calif.) using a cytospin centrifuge (Shandon Cytospin, Thermo Fisher Scientific, Waltham, Mass.). To determine the number of platelets with extensions and distinct cell bodies, fixed cells were counterstained with Alexa Fluor® 488 phalloidin (A12379; Invitrogen, Eugene, Oreg.), a high-affinity probe for F-actin, and/or an Alexa Fluor® 555 (W32464; Invitrogen) conjugate of wheat germ agglutinin (WGA). Three random fields were captured from each independent experiment and at least 500 total cells, which encompassed individual platelets with two or more distinct cell bodies, were counted (FIG. 1H and FIG. 1I).

human platelets [2] = assay: Surface P-selectin expression of cultured platelets with new cell bodies after agonist activation (immunostaining); assay type: cell-based; details: after 6 hours culture; ADP (2 μM) or thrombin (0.005 U/ml) for 1 minute
Description: For protein localization studies by immunocytochemistry (ICC), fixed cells were stained with antibodies directed against αIIbβ3 and Annexin V (ab34407; Abeam, Cambridge, Mass.), P-selectin (sc-6941; Santa Cruz Biotechnology, Santa Cruz, Calif.), β-tubulin (T-5293; Sigma), or mitofilin (MSM02; MitoSciences, Eugene, Oreg.). Specificity of the staining was confirmed for each antibody with isotype-matched nonimmune IgG. The cells were counterstained with either Alexa Fluor® 488 phalloidin or Alexa Fluor® 555 WGA conjugate as described in the previous paragraph. To assess mitochondrial function, use was made of MitoTracker® Red CM-H2XRos (M7513; Invitrogen), a reduced probe that fluoresces when it enters actively respiring mitochondria. For these studies, MitoTracker® (1 μM) was incubated with the live platelets one hour before the end of the experiment.

[3] = tested on: endogenous reverse transcriptase (RT) activity in platelets; assay: Reverse transcriptase activity assay in platelet lysates (reverse transcription of MS2 phage RNA); assay type: biochemical, human; details: platelet lysates incubated with compound at 37° C. for 120 minutes; nevirapine 100, 500, 750 μM; 9-cis retinoic acid 0.1, 1, 10 μM
Protocol: Reverse Transcriptase Activity Assay (FIGS. 10A-C and FIGS. 11A-C). The reverse transcriptase (RT) activity assay was performed as previously described^22 with minor modifications. […] MS2 phage RNA was subsequently added to the lysates and reverse transcription of MS2 phage RNA by platelet lysates or a commercial RT (Thermoscript, Invitrogen, Eugene, Oreg.) was determined.

Row | Compound | number of newly-formed cell bodies extending from cultured platelets / progeny formation (human platelets [1]) | surface P-selectin expression in platelets that developed new cell bodies (human platelets [2]) | RT activity in platelets [3]
1 | cytocholasin D | inhibited | – | –
2 | Nc1ncnc2c1ncn2[C@@H]1O[C@H](COP(=O)(O)OP(=O)(O)O)[C@@H](O)[C@H]1O [ADP] | – | markedly increased | –
3 | thrombin | did not develop new cells bodies; also recorded: blocks | markedly increased | –
4 | CC1=C(/C=C/C(C)=C\C=C\C(C)=C\C(=O)O)C(C)(C)CCC1 [9-cis retinoic acid] | – | – | inhibited
5 | thrombopoietin: key regulator of bone marrow-dependent thrombopoiesis | no effect | – | –
6 | Cc1ccnc2c1NC(=O)c1cccnc1N2C1CC1 [nevirapine] | – | – | inhibited

From patent US20110294737A1, “TERMINALLY-DIFFERENTIATED ANUCLEATE PLATELET PROGENY GENERATION” (priority 2008, published 2011)
